The test relates to P388 leukemia ip, CD2F1 mice, survival T/C. Kind of test: NCI In Vivo Anticancer Drug Screen. Data for tumor model P388 Leukemia (intraperitoneal) in CD2F1 (CDF1) mice. To be noted: endpoint: median survival time, higher = longer survival. In short, it runs like this:
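Mice carrying the transplanted tumor received test compound or vehicle. Survival was recorded in each group, and the value is the treated-group measurement divided by that of the vehicle-treated control group.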

The mark [1] stands for this setting: dose: 50.0 mg/kg/injection, schedule: Q01DX009 (ip), vehicle: Klucel (hydroxypropylcellulose) (HPC).
The mark [2] stands for this setting: dose: 100.0 mg/kg/injection, schedule: Q01DX009 (ip), vehicle: Klucel (hydroxypropylcellulose) (HPC).
Where [3] appears, read: dose: 200.0 mg/kg/injection, schedule: Q01DX009 (ip), vehicle: Klucel (hydroxypropylcellulose) (HPC).
Setting [4] is: dose: 50.0 mg/kg/injection, schedule: Q01DX005 (ip), vehicle: Klucel (hydroxypropylcellulose) (HPC).
Where [5] appears, read: dose: 100.0 mg/kg/injection, schedule: Q01DX005 (ip), vehicle: Klucel (hydroxypropylcellulose) (HPC).
Setting [6] is: dose: 200.0 mg/kg/injection, schedule: Q01DX005 (ip), vehicle: Klucel (hydroxypropylcellulose) (HPC).
[7] abbreviates: dose: 50.0 mg/kg/injection, schedule: Q01DX009 (ip), vehicle: saline with Tween-80.
[8] abbreviates: dose: 100.0 mg/kg/injection, schedule: Q01DX009 (ip), vehicle: saline with Tween-80.
[9] abbreviates: dose: 200.0 mg/kg/injection, schedule: Q01DX009 (ip), vehicle: saline with Tween-80.
Where [10] appears, read: dose: 100.0 mg/kg/injection, schedule: Q04DX003 (ip), vehicle: saline with Tween-80.
[11] abbreviates: dose: 200.0 mg/kg/injection, schedule: Q04DX003 (ip), vehicle: saline with Tween-80.

The values below come from PubChem BioAssay AID330 (DTP/NCI, 2004).

Values joined by “and” are separate entries in the source; they are usually repeats but may differ in a detail not shown here. Equal entries are not always repeated. Toxic doses and inconclusive results are not listed.

For `CC(=O)OC1=NC(C)c2c1cc(OC(C)=O)nc2OC(C)=O` (stereo not drawn), the T/C is 104 % of control under setting [1], 102 % of control under setting [2] and 102 % of control under setting [3].

For `Cn1cnc2cc(NCc3ccccc3)c([N+](=O)[O-])cc2c1=O`, the T/C is, setting by setting: (dose: 100.0 mg/kg/injection, schedule: Q04DX003 (ip), vehicle: Klucel (hydroxypropylcellulose) (HPC)) 100 % of control; (dose: 200.0 mg/kg/injection, schedule: Q04DX003 (ip), vehicle: Klucel (hydroxypropylcellulose) (HPC)) 106 % of control; (dose: 400.0 mg/kg/injection, schedule: Q04DX003 (ip), vehicle: Klucel (hydroxypropylcellulose) (HPC)) 101 % of control.

`NC(N)=O.NC(N)=O.NC(N)=O.NC(N)=O.NC(N)=O.NC(N)=O.[O-][Cl+3]([O-])([O-])O.[Ti+3]`: the T/C runs as follows: (dose: 50.0 mg/kg/injection, schedule: Q01DX009 (ip), vehicle: saline) 99 % of control; (dose: 100.0 mg/kg/injection, schedule: Q01DX009 (ip), vehicle: saline) 92 % of control; (dose: 200.0 mg/kg/injection, schedule: Q01DX009 (ip), vehicle: saline) 86 % of control.

For the molecule `COc1ccc(O)c(C(C)=O)c1`, the T/C was 102 % of control under setting [4], 100 % of control under setting [5] and 98 % of control under setting [6].

For `CCOC(=O)CCCC(NC(=O)c1ccc(N2CCN(c3c(N)nc(N)nc3NC)CC2)cc1)C(=O)OCC` (stereo not drawn), the T/C runs as follows: (dose: 60.0 mg/kg/injection, schedule: Q01DX005 (ip), vehicle: Klucel (hydroxypropylcellulose) (HPC)) 91 % of control; (dose: 120.0 mg/kg/injection, schedule: Q01DX005 (ip), vehicle: Klucel (hydroxypropylcellulose) (HPC)) 87 % of control; (dose: 240.0 mg/kg/injection, schedule: Q01DX005 (ip), vehicle: Klucel (hydroxypropylcellulose) (HPC)) 96 % of control.

For the molecule `Cc1nc2ccccc2c(=O)n1/N=C1/C(=O)Nc2ccccc21`, the T/C was 90 % of control (dose: 25.0 mg/kg/injection, schedule: Q01DX005 (ip), vehicle: Klucel (hydroxypropylcellulose) (HPC)); 90 % of control under setting [4]; 88 % of control under setting [5]; 103 % of control under setting [6].

For the molecule `Cn1c(=O)c2nc(-c3ccc(Cl)cc3)c(-c3ccc(Cl)cc3)nc2n(C)c1=O`, the T/C was 102 % of control (dose: 50.0 mg/kg/injection, schedule: Q01DX001 (ip), vehicle: saline with Tween-80); 102 % of control (dose: 100.0 mg/kg/injection, schedule: Q01DX001 (ip), vehicle: saline with Tween-80); 110 % of control (dose: 200.0 mg/kg/injection, schedule: Q01DX001 (ip), vehicle: saline with Tween-80).

In the case of `O=C1OC(c2ccccc2)(c2ccc(Cl)cc2)CC1/C=C(\c1ccccc1)c1ccc(Cl)cc1` (stereo not drawn), the T/C was 96 % of control (dose: 50.0 mg/kg/injection, schedule: Q01DX005 (ip), vehicle: saline with Tween-80); 90 % of control (dose: 100.0 mg/kg/injection, schedule: Q01DX005 (ip), vehicle: saline with Tween-80); 91 % of control (dose: 200.0 mg/kg/injection, schedule: Q01DX005 (ip), vehicle: saline with Tween-80).

For the molecule `CC1=C(C)CC2(CC1)C(=O)C1(CCC(C)=C(C)C1)C2=O` (stereo not drawn), the T/C is 93 % of control under setting [7], 90 % of control under setting [8] and 99 % of control under setting [9].

With `CCCCCCCCCCCCCCC1(C(=O)OC)CO1` (stereo not drawn), the T/C is, setting by setting: (dose: 6.25 mg/kg/injection, schedule: Q01DX005 (ip), vehicle: Klucel (hydroxypropylcellulose) (HPC)) 94 % of control; (dose: 12.5 mg/kg/injection, schedule: Q01DX005 (ip), vehicle: Klucel (hydroxypropylcellulose) (HPC)) 94 % of control; under setting [4], 102 % of control.

As for `c1ccc2c(c1)C1CC3N=NC1C23` (stereo not drawn), the T/C was 105 % of control under setting [4] and 107 % of control under setting [5].

`O=C1c2ccccc2C(=O)N1c1ccc(Cl)cc1[N+](=O)[O-]`: the T/C was 99 % of control (dose: 100.0 mg/kg/injection, schedule: Q04DX002 (ip), vehicle: saline); 99 % of control (dose: 200.0 mg/kg/injection, schedule: Q04DX002 (ip), vehicle: saline); 97 % of control (dose: 400.0 mg/kg/injection, schedule: Q04DX002 (ip), vehicle: saline).

`CC1(C)CNC(=O)C2=C(O1)C(=O)OC2`: the T/C is, setting by setting: (dose: 100.0 mg/kg/injection, schedule: Q04DX002 (ip), vehicle: saline with Tween-80) 100 % of control; (dose: 200.0 mg/kg/injection, schedule: Q04DX002 (ip), vehicle: saline with Tween-80) 100 % of control; (dose: 400.0 mg/kg/injection, schedule: Q04DX002 (ip), vehicle: saline with Tween-80) 103 % of control.

Regarding `CSc1c(C(C)(C)O)cc(C(C)(C)C)cc1C(C)(C)O`, the T/C reads like this: under setting [1], 93 % of control; under setting [2], 93 % of control; under setting [3], 94 % of control.

Regarding `CCCCCCC(=O)/C=C/c1cccc(OCc2ccc(Cl)cc2)c1`, the T/C by setting is: under setting [7], 101 % of control; under setting [8], 93 % of control; under setting [9], 101 % of control.

As to `COC(=O)CCc1cc(=O)oc2c3c(cc(OC)c12)OC1OC(=O)CC31` (stereo not drawn), the T/C is, setting by setting: (dose: 8.75 mg/kg/injection, schedule: Q01DX005 (ip), vehicle: Klucel (hydroxypropylcellulose) (HPC)) 90 % of control; (dose: 17.5 mg/kg/injection, schedule: Q01DX005 (ip), vehicle: Klucel (hydroxypropylcellulose) (HPC)) 95 % of control; (dose: 35.0 mg/kg/injection, schedule: Q01DX005 (ip), vehicle: Klucel (hydroxypropylcellulose) (HPC)) 90 % of control.

As for `COc1cc2c(c(C3(O)C(=O)N(C)c4ccccc43)c1OC)OCO2` (stereo not drawn), the T/C runs as follows: (dose: 60.0 mg/kg/injection, schedule: Q01DX005 (ip), vehicle: saline with Tween-80) 101 % of control; (dose: 120.0 mg/kg/injection, schedule: Q01DX005 (ip), vehicle: saline with Tween-80) 98 % of control; (dose: 240.0 mg/kg/injection, schedule: Q01DX005 (ip), vehicle: saline with Tween-80) 98 % of control.

For `Cc1ccccc1N1C(=O)[N+]2(CCCCC2)N=C1[O-]`, the T/C under setting [10] was 99 % of control; the T/C under setting [11] is 100 % of control; the T/C (dose: 400.0 mg/kg/injection, schedule: Q04DX003 (ip), vehicle: saline with Tween-80) was 92 % of control.

Regarding `CC(C)c1cc2c(cc1O)C[C@@]1(O)CCCC(C)(C)C1CC2` (stereo partly drawn), the T/C runs as follows: (dose: 7.0 mg/kg/injection, schedule: Q01DX005 (ip), vehicle: other) 100 % of control; (dose: 14.0 mg/kg/injection, schedule: Q01DX005 (ip), vehicle: other) 100 % of control; (dose: 28.0 mg/kg/injection, schedule: Q01DX005 (ip), vehicle: other) 104 % of control; (dose: 56.0 mg/kg/injection, schedule: Q01DX005 (ip), vehicle: other) 99 % of control.

As to `Cc1ccc(C(SCC(N)C(=O)O)(c2ccccc2)c2ccc(C)cc2)cc1` (stereo not drawn), the T/C was 186 % of control (dose: 50.0 mg/kg/injection, schedule: Q04DX003 (ip), vehicle: saline with Tween-80); 200 % of control under setting [10]; 172 % of control (dose: 132.0 mg/kg/injection, schedule: Q04DX003 (ip), vehicle: saline with Tween-80); 177 % of control and 200 % of control under setting [11]; 263 % of control (dose: 300.0 mg/kg/injection, schedule: Q04DX003 (ip), vehicle: saline with Tween-80).

On to `CCOC(=O)C1(C(=O)OCC)COC(=O)C1`, for which the T/C was 97 % of control (dose: 16.0 mg/kg/injection, schedule: Q01DX009 (ip), vehicle: saline with Tween-80); 109 % of control (dose: 32.0 mg/kg/injection, schedule: Q01DX009 (ip), vehicle: saline with Tween-80); 114 % of control (dose: 64.0 mg/kg/injection, schedule: Q01DX009 (ip), vehicle: saline with Tween-80); 97 % of control (dose: 128.0 mg/kg/injection, schedule: Q01DX009 (ip), vehicle: saline with Tween-80); 106 % of control (dose: 256.0 mg/kg/injection, schedule: Q01DX009 (ip), vehicle: saline with Tween-80).

Take `O=C(Nc1ccc(Br)cn1)c1sc2ccccc2c1Cl`: the T/C (dose: 6.25 mg/kg/injection, schedule: Q01DX009 (ip), vehicle: saline with Tween-80) was 99 % of control; the T/C (dose: 12.5 mg/kg/injection, schedule: Q01DX009 (ip), vehicle: saline with Tween-80) is 98 % of control; the T/C (dose: 25.0 mg/kg/injection, schedule: Q01DX009 (ip), vehicle: saline with Tween-80) is 99 % of control; the T/C under setting [8] is 92 % of control; the T/C under setting [9] was 87 % of control.
